Test results: patent publication US12595252B2, “Inhibitors of SARM1” (DISARM THERAPEUTICS, INC., priority 2019, dated 2026)
Read-outs that look alike come from different tables or passages of the source.

Biological target: T1, SARM1 (Homo sapiens, UniProt Q6SZW1)
T1 construct: made in house; host or cells: NRK1-HEK293T cells, transiently transfected; clarified lysate used unpurified
T1 sequence (Q6SZW1 with tags, fused parts or gaps): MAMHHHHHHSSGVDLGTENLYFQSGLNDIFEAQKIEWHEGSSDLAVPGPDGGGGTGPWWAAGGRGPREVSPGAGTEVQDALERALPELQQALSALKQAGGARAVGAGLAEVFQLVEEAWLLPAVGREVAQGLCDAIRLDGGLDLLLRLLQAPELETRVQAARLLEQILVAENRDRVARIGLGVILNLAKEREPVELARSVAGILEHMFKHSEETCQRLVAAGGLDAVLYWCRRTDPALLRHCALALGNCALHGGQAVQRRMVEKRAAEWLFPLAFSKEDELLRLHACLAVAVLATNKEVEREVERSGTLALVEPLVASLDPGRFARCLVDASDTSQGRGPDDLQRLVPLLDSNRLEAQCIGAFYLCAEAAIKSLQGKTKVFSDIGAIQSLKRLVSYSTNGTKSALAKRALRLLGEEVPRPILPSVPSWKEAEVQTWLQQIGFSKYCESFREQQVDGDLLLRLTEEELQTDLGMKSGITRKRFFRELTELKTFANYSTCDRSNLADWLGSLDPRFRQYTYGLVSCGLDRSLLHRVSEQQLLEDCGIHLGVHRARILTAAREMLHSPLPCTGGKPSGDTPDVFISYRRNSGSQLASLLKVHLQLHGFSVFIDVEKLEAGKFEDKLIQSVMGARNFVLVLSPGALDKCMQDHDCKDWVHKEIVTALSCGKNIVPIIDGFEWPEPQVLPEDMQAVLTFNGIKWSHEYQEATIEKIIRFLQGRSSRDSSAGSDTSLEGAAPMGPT
Experiment: ARM-SAM-TIR SARM1 IC50 assay (NADase activity, NAD+ cleavage)
Assay type: biochemical
Protocol: This Example describes an assay of ARM-SAM-TIR NADase activity and use of this assay to measure the efficacy of compounds of Formula I to block SARM1 mediated NAD+ cleavage. This assay is optimized in such a way as to characterize the efficacy of the compounds in Formula I to inhibit SARM1 activity and to calculate an IC50 value for each compound. This assay makes use of full length SARM1, which encompasses the ARM, SAM and TIR domains.
NRK1-HEK293T cells were seeded onto 150 cm^2 plates at 20×10^6 cells per plate. The next day, the cells were transfected with 15 μg ARM-SAM-TIR expression plasmid, SEQ ID NO: 1.
The cultures were supplemented with 1 mM NR at time of transfection to minimize toxicity from ARM-SAM-TIR overexpression. Forty-eight hours after transfection, cells were harvested, pelleted by centrifugation at 1,000 rpm (Sorvall ST 16R centrifuge, Thermo Fisher), and washed once with cold PBS (0.01 M phosphate buffered saline NaCl 0.138 M; KCl 0.0027 M; pH 7.4). The cells were resuspended in PBS with protease inhibitors (cOmplete™ protease inhibitor cocktail, Roche product #11873580001) and cell lysates were prepared by sonication (Branson Sonifer 450, output=3, 20 episodes of stroke). The lysates were centrifuged (12,000×g for 10 min at 4° C.) to remove cell debris and the supernatants (containing ARM-SAM-TIR protein) were stored at −80° C. for later use in the in vitro ARM-SAM-TIR NADase assay (see below). Protein concentration was determined by the Bicinchoninic (BCA) method and used to normalize lysate concentrations.
The enzymatic assay was performed in a 384-well polypropylene plate in Dulbecco's PBS buffer in a final assay volume of 20 μL. ARM-SAM-TIR lysate with a final concentration of 5 μg/mL was pre-incubated with the respective compound at 1% DMSO final assay concentration over 2 h at room temperature. The reaction was initiated by addition of 5 μM final assay concentration of NAD+ as substrate. After a 2 hr room temperature incubation, the reaction was terminated with 40 μL of stop solution of 7.5% trichloroacetic acid in acetonitrile. The NAD+ and ADPR concentrations were analyzed by a RapidFire High Throughput Mass Spectrometry System (Agilent Technologies, Santa Clara, Calif.) using an API4000 triple quadrupole mass spectrometer (AB Sciex Framingham, Mass.).

[1] = ARM-SAM-TIR lysate 5 μg/mL from NRK1-HEK293T cells, 2 h pre-incubation, 5 μM NAD+, 2 hr room temperature, NAD+ and ADPR by RapidFire MS, read-out: SARM1 IC50

| Compound | IC50 [1] [µM] | IC50 [µM] |
| --- | --- | --- |
| Cn1cc(CNc2cncc(OCC(F)(F)F)n2)cn1 [Example 117] | > 30 |  |
| COc1cncc(NCc2ccc(N)nc2)n1 [Example 118] | < 5 |  |
| COc1cncc(NCc2cnn(C3CCN(C)CC3)c2)n1 [Example 119] | < 5 |  |
| CCN1CCC(n2cc(CNc3cncc(OC)n3)cn2)CC1 [Example 120] | < 5 |  |
| COc1cncc(NCc2cnc(C)o2)n1 [Example 121] | 5 to 15 |  |
| CCN1CCN(c2ncc(CNc3cncc(OC)n3)cn2)C(C)C1 (stereo not drawn) [Example 122] | 5 to 15 |  |
| COc1cncc(NCc2cccc(N3CCN(C(=O)OC(C)(C)C)CC3)c2)n1 [Example 123] | 5 to 15 |  |
| COc1cncc(NCc2ccc(C3=CCN(C)CC3)nc2)n1 [Example 124] |  | 5 to 15 |
| COc1cncc(NCc2ccc(C3CCN(C)CC3)nc2)n1 [Example 125] | 5 to 15 |  |
| COc1cncc(NCc2cccc(N3CCNCC3)c2)n1 [Example 126] | 5 to 15 |  |
| COc1cncc(NCc2cccc(S(C)(=O)=O)c2)n1 [Example 127] | 15 to 30 |  |
| COc1cncc(NCc2cccc(C#N)c2)n1 [Example 128] | 5 to 15 |  |
| COc1cncc(NCc2ccc(C#N)cc2)n1 [Example 129] | 5 to 15 |  |
| COc1cncc(NCc2ccc(N3CCC(F)(F)CC3)nc2)n1 [Example 130] | 5 to 15 |  |
| COc1cncc(NCc2ccc(N3CCN4CCCC4C3)nc2)n1 (stereo not drawn) [Example 131] | < 5 |  |
| COc1cncc(NCc2ccc(N3CCN(C(=O)OC(C)(C)C)CC3)nc2)n1 [Example 132] | 5 to 15 |  |
| COc1cncc(NCc2ccc(NS(C)(=O)=O)nc2)n1 [Example 133] | 5 to 15 |  |
| COc1cncc(NCc2cnn(C3CCN(C(C)=O)CC3)c2)n1 [Example 134] | 15 to 30 |  |
| COc1cnnc(NCc2cn[nH]c2)c1 [Example 135] | 15 to 30 |  |
| COc1cc(NC(=O)c2cccnc2)cnn1 [Example 136] | 5 to 15 |  |
| COc1cc(NC(=O)c2cnccn2)cnn1 [Example 137] | > 30 |  |

| Compound | IC50 [1] [µM] | IC50 [µM] |
| --- | --- | --- |
| CCc1cncc(NCc2cccnc2)n1 [Example 138] | 15 to 30 |  |
| CNC(=O)c1cncc(NCc2cccnc2)n1 [Example 139] | 5 to 15 |  |
| COc1cc(NCc2cccnc2)n[nH]c1=O [Example 140] | 15 to 30 |  |
| COc1cncc(NCc2ccc(-c3ccncc3)nc2)n1 [Example 141] | 5 to 15 |  |
| COc1cncc(NCc2ccc(-c3ccccc3)nc2)n1 [Example 142] | 5 to 15 |  |
| COc1cncc(NCc2ccc(OC(F)(F)F)cc2)n1 [Example 143] | 5 to 15 |  |
| COc1cncc(NCc2ccc(C(C)(C)O)cc2)n1 [Example 144] | 5 to 15 |  |
| COc1cncc(NCc2cccnc2O)n1 [Example 145] | > 30 |  |
| COc1cncc(NCc2ccc(-c3nnco3)cc2)n1 [Example 146] | 5 to 15 |  |
| COc1cncc(NCc2ccc(N3CCN(C(C)C)CC3)nc2)n1 [Example 147] | 5 to 15 |  |
| CCCCN1CCN(c2ccc(CNc3cncc(OC)n3)cn2)CC1 [Example 148] | 5 to 15 |  |
| CCNC(=O)n1cc(CNc2cncc(OC)n2)cn1 [Example 149] | 5 to 15 |  |
| COc1cncc(NCc2cnn(S(C)(=O)=O)c2)n1 [Example 150] | 5 to 15 |  |
| Cn1cc(CNc2cncc(NCCCCO)n2)cn1 [Example 151] | 5 to 15 |  |
| CNc1cncc(OC)n1 [Example 152] | < 5 |  |
| COc1cc(NCc2cccnc2)cc(=O)[nH]1 [Example 153] | > 30 |  |
| N#Cc1cncc(NCc2cccnc2)n1 [Example 154] | > 30 |  |
| CCN1CCN(c2cccc(CNc3cncc(OC)n3)c2)CC1 [Example 155] | 5 to 15 |  |
| COc1cncc(NCc2ccc(S(=O)(=O)N(C)C)cc2)n1 [Example 156] | 15 to 30 |  |
| COc1cncc(NCc2ccn(C)c(=O)c2)n1 [Example 157] | 15 to 30 |  |
| COc1cncc(NCc2ccc(-c3nn[nH]n3)cc2)n1 [Example 158] | 15 to 30 |  |

| Compound | IC50 [1] [µM] | IC50 [µM] |
| --- | --- | --- |
| COc1cncc(N)n1 [Example 159] | 15 to 30 |  |
| COc1cncc(N)c1 [Example 160] | 15 to 30 |  |
| CNc1cc(OC)cnn1 [Example 161] | > 30 |  |
| CNc1nccc(OC)n1 [Example 162] | > 30 |  |
| CNc1cncc(OCc2ccccc2)n1 [Example 163] | 5 to 15 |  |
| CNC(=O)c1cncc(NC)n1 [Example 164] | > 30 |  |
| CNc1cncc(NCCCCO)n1 [Example 166] | 15 to 30 |  |
| CNc1cncc(NCCc2cnn(C)c2)n1 [Example 167] | 15 to 30 |  |
| CNc1cncc(OCCCNC(=O)OC(C)(C)C)n1 [Example 168] | > 30 |  |
| CNc1cncc(OCCCCNC(=O)OC(C)(C)C)n1 [Example 169] | > 30 |  |
| CCCOc1cncc(NCc2cnn(C)c2)n1 [Example 170] | > 30 |  |
| CNc1cncc(OC)c1 [Example 171] | 5 to 15 |  |
| CNc1cncc(OCCCN)n1 [Example 172] | > 30 |  |
| CNc1cncc(OCCCCN)n1 [Example 173] | > 30 |  |
| CNc1cncc(OCCCCO)n1 [Example 174] | < 5 |  |
| COc1cc(NCc2ccc(S(N)(=O)=O)cc2)cnn1 [Example 175] | > 30 |  |
| COc1cc(NCc2cc[nH]c(=O)c2)cnn1 [Example 176] | > 30 |  |
| Cn1cc(CNc2cncc(OCCC3CCCO3)n2)cn1 (stereo not drawn) [Example 177] | > 30 |  |
| CCN1CCN(c2ccc(CNc3cnccn3)cn2)CC1 [Example 178] | > 30 |  |
| CCN1CCN(c2ccc(CNc3cnccn3)cc2)CC1 [Example 182] | > 30 |  |
| CCOc1cncc(NCc2cnccn2)n1 [Example 183] | > 30 |  |

| Compound | IC50 [1] [µM] | IC50 [µM] |
| --- | --- | --- |
| CCOc1cncc(NC(C)c2ccccn2)n1 (stereo not drawn) [Example 184] | > 30 |  |
| CCOc1cncc(NCc2ccccn2)n1 [Example 185] | > 30 |  |
| Brc1cncc(NCc2cccnc2)n1 [Example 186] | > 30 |  |
| Clc1cncc(NCc2cccnc2)n1 [Example 187] | > 30 |  |
| Brc1cncc(OCc2cccnc2)n1 [Example 188] | > 30 |  |
| Clc1cncc(OCc2cccnc2)n1 [Example 189] | > 30 |  |
| CCOc1cncc(OCc2cccnc2)n1 [Example 190] | > 30 |  |
| CCOc1cncc(NC(=O)c2cccnc2)n1 [Example 191] | > 30 |  |
| CCOc1cncc(NC(=O)c2ccccc2)n1 [Example 192] | > 30 |  |
| CCOc1cncc(NC(C)=O)n1 [Example 193] | > 30 |  |
| CCOc1cncc(NS(C)(=O)=O)n1 [Example 195] | > 30 |  |
| COc1cncc(C(=O)NCc2ccccc2)n1 [Example 196] | > 30 |  |
| COc1cncc(C(=O)Nc2ccccc2)n1 [Example 197] | > 30 |  |
| c1ccc(COc2cncc(NCc3cccnc3)n2)cc1 [Example 198] | > 30 |  |
| c1cncc(CNc2cncc(OCC3CCCC3)n2)c1 [Example 199] | > 30 |  |
| CCCc1cncc(NCc2cccnc2)n1 [Example 200] | > 30 |  |
| Cc1ncc(Cl)nc1NCc1cccnc1 [Example 201] | > 30 |  |
| COc1cncc(N(C)Cc2cccnc2)n1 [Example 202] | > 30 |  |
| COc1cnc(NCc2cccnc2)cn1 [Example 203] | > 30 |  |
| COc1cnc(C)c(NCc2cccnc2)n1 [Example 204] | > 30 |  |
| COc1cncc(NCc2cn(C)nc2C)n1 [Example 206] | > 30 |  |
